From patent US10000483B2, “Bone marrow on X chromosome kinase (BMX) inhibitors and uses thereof” (Dana-Farber Cancer Institute, Inc., priority 2012, dated 2018)
“And” between values parts separate entries of the source, which are not always exact repeats. Equal values may be shown once. Values belong to the compound of their own block, whether it stands above or below them.

Legend:
OCI-Ly19 cells = assay: Cell proliferation analysis for WM and lymphoma cell lines (CellTiter-Glo); type: cell-based; conditions: Homo sapiens, 72 hours
Procedure: (§2) Various cell lines were used including Waldenström's macroglobulinemia (WM) cell lines (BCWM.1, MWCL-1, RPCI-WM1) and B-cell lymphoma cell lines (OCI-Ly3, Ramos, OCI-Ly19). Cells were seeded into 384 well plates with the EL406 Combination Washer Dispenser (BioTek Instruments, Inc.) and inhibitor compounds were injected into the cells culture media with the JANUS Automated Workstation (PerkinElmer Inc.).

[1] = system: CD19+ B-cells from a Waldenstrom's macroglobulinemia patient; assay: Apoptosis analysis of primary patient cells (Annexin V/propidium iodide); type: cell-based, human; conditions: patient after six months of ibrutinib treatment; FIG. 22
Procedure: Primary patient WM cells genotyped for MYD88 L265P, as well as MYD88 WT healthy donor CD19-selected peripheral blood mononuclear cells (PBMCs) were treated with and without inhibitor compounds. Cells were incubated at 37° C. with 0.01˜4 μM of an inhibitor compound of Formula (I) or (II) (e.g., 11-4). Apoptosis analysis was performed using Annexin V-FITC/Propidium iodide staining with the Apoptosis Detection Kit I (BD Pharmingen). 1×10^6/well cells were treated in 24 well plates for˜24 hours with inhibitor compounds or corresponding controls. A minimum of 10,000 events were acquired using a BD™ FACSCanto II flow cytometer and analyzed with BD FACS DIVA Software.

BCWM.1 cells = assay: Cell proliferation analysis for WM and lymphoma cell lines (CellTiter-Glo); type: cell-based; conditions: BCWM1; 72 hours
Procedure: as §2

MWCL-1 cells = assay: as above; type: cell-based; conditions: 72 hours
Procedure: as §2

OCI-Ly3 cells = assay: as above; type: cell-based; conditions: Homo sapiens, 72 hours
Procedure: as §2

RV-1 cells = assay: Combination of I-14 with MK2206, dose-response in RV-1 cells; conditions: with I-14
CLK1 [2] = target: T1, CLK1 (Homo sapiens (Human), UniProt P49759); assay: DiscoverX binding assay
T1 sequence (P49759 whole entry): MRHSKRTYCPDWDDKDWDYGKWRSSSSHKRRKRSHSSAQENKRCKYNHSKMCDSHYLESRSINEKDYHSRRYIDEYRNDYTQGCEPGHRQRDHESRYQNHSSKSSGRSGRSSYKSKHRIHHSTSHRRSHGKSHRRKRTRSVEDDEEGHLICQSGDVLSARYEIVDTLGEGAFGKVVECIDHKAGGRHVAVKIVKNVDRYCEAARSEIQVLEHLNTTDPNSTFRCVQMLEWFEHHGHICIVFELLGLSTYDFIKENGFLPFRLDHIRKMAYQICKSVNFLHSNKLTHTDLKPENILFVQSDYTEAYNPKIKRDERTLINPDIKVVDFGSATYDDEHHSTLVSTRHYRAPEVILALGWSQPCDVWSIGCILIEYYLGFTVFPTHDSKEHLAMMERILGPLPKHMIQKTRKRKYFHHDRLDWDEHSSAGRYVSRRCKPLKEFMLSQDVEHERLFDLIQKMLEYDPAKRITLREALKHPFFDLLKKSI
From the text: (§3) Screening hits are identified by measuring the amount of protein captured in test versus control samples by using a quantitative, precise, and ultra-sensitive qPCR method that detects the associated DNA label.

DYRK1A = DYRK1A (Homo sapiens (Human), UniProt Q13627); assay: Kinase panel at 1 uM (Table 9); type: binding; conditions: read-out: % inhibition at 1 uM, DYRK1A
From the text: as §3

TEC = TEC (Homo sapiens (Human), UniProt P42680); assay: DiscoverX binding assay
From the text: as §3

TAK1 = TAK1 (Homo sapiens (Human), UniProt O43318); assay: Kinase panel at 1 uM (Table 9); type: binding; conditions: read-out: % inhibition at 1 uM, TAK1
From the text: as §3

MKNK2 = MKNK2 (Homo sapiens (Human), UniProt Q9HBH9); assay: Kinase panel at 1 uM (Table 9); type: binding; conditions: read-out: % inhibition at 1 uM, MKNK2
From the text: as §3

DYRK2 = DYRK2 (Homo sapiens (Human), UniProt Q92630); assay: Kinase panel at 1 uM (Table 9); type: binding; conditions: read-out: % inhibition at 1 uM, DYRK2
From the text: as §3

CLK1 [3] = target: T1, CLK1; assay: Invitrogen Select Screening in vitro kinase assay; type: biochemical; conditions: first value of CLK1/2 cell
YSK4 = YSK4 (Homo sapiens (Human), UniProt Q56UN5); assay: Kinase panel at 1 uM (Table 9); type: binding; conditions: read-out: % inhibition at 1 uM, YSK4
From the text: as §3

PIK4CB = PIK4CB (Homo sapiens (Human), UniProt Q9UBF8); assay: Kinase panel at 1 uM (Table 9); type: binding; conditions: read-out: % inhibition at 1 uM, PIK4CB
From the text: as §3

PIK3CA(I800L) = PIK3CA(I800L) (Homo sapiens (Human), UniProt P42336, I800L); assay: Kinase panel at 1 uM (Table 9); type: binding; conditions: read-out: % inhibition at 1 uM, PIK3CA(I800L)
From the text: as §3

PIK3CG = PIK3CG (Homo sapiens (Human), UniProt P48736); assay: Kinase panel at 1 uM (Table 9); type: binding; conditions: read-out: % inhibition at 1 uM, PIK3CG
Chain of PIK3CG (P48736 whole entry): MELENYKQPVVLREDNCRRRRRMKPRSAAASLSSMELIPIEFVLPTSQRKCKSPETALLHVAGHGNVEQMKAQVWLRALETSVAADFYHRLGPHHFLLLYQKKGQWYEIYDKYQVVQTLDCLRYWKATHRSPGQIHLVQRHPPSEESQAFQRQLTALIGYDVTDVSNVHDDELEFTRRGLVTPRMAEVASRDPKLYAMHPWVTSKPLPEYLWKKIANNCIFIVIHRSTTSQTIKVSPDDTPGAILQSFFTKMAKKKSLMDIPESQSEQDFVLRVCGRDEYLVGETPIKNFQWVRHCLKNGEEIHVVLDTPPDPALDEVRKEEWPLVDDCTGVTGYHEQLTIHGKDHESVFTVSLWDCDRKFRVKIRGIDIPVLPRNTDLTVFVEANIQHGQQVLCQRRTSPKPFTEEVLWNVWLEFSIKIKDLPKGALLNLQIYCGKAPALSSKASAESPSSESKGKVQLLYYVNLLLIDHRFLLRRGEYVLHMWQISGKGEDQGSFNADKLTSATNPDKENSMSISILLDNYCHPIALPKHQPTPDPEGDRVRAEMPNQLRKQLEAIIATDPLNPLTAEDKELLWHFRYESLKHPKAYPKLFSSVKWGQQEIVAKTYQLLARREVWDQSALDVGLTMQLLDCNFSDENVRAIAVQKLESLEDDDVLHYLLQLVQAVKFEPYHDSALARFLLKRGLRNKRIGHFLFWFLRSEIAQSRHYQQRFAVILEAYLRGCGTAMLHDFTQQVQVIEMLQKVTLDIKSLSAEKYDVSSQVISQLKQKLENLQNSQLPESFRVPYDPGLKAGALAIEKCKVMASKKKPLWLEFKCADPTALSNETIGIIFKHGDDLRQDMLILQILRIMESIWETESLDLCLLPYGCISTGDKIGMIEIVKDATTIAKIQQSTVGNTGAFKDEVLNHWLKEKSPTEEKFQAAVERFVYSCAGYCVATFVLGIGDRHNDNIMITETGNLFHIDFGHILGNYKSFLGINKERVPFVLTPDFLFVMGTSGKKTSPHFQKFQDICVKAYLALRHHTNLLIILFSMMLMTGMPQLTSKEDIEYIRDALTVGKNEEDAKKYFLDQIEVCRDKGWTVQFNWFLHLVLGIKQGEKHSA
From the text: as §3

BMX [4] = target: T2, BMX (Homo sapiens (Human), UniProt P51813); assay: DiscoverX binding assay
T2 sequence (P51813 whole entry): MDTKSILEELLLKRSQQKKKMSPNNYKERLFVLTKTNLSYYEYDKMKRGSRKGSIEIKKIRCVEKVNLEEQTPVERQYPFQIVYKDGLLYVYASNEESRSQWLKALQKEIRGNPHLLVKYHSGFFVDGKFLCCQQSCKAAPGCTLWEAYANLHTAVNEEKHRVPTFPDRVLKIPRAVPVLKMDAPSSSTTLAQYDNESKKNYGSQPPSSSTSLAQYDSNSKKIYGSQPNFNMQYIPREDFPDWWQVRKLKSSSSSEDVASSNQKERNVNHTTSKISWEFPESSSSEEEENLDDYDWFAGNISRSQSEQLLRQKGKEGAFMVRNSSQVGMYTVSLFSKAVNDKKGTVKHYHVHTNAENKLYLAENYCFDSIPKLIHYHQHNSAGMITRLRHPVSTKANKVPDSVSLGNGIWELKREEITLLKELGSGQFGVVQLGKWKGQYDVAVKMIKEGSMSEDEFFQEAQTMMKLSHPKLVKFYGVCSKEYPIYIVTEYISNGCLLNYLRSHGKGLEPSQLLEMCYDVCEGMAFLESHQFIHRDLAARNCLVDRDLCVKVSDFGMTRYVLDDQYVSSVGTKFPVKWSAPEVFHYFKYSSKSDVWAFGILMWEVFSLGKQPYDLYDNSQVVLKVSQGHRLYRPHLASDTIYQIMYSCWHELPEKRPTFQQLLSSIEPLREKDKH
From the text: as §3

BMX [5] = target: T2, BMX; assay: Invitrogen Select Screening in vitro kinase assay; type: biochemical
BLK [6] = target: T3, BLK (Homo sapiens (Human), UniProt P51451); assay: Invitrogen Select Screening in vitro kinase assay; type: biochemical
T3 sequence (P51451 whole entry): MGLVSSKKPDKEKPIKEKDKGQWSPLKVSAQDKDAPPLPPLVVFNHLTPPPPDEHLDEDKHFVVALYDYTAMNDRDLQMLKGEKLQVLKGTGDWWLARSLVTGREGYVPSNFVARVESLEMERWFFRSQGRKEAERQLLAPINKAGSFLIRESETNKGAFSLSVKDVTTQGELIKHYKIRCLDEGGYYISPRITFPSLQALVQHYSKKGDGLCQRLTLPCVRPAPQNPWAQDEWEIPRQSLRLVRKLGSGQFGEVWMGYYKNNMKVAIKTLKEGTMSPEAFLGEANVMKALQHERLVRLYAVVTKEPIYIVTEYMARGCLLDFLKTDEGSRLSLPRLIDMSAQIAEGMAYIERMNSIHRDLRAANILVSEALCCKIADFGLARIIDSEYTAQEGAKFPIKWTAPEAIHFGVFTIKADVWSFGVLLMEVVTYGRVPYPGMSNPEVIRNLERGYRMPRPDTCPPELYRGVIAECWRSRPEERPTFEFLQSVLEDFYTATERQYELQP
From the text: (§1) The in vitro activity of compounds of Formula (I) and (II) in inhibiting BMX and other kinases were obtained using an Invitrogen Select Screening assay as known in the art. The IC50 values determined from this assay are shown below.

mTOR [7] = target: T4, mTOR (Homo sapiens (Human), UniProt P42345); assay: Invitrogen Select Screening in vitro kinase assay; type: biochemical
From the text: as §1

JNK3 = JNK3 (Homo sapiens (Human), UniProt P53779); assay: Kinase panel at 1 uM (Table 9); type: binding; conditions: read-out: % inhibition at 1 uM, JNK3
From the text: as §3

FLT3(ITD) = assay: Kinase panel at 1 uM (Table 9); type: binding
From the text: as §3

BLK [8] = target: T3, BLK; assay: DiscoverX binding assay
From the text: as §3

PIP5K2C = PIP5K2C (Homo sapiens (Human), UniProt Q8TBX8); assay: Kinase panel at 1 uM (Table 9); type: binding; conditions: read-out: % inhibition at 1 uM, PIP5K2C
From the text: as §3

JAK3 [9] = target: T5, JAK3 (Homo sapiens (Human), UniProt P52333); assay: Invitrogen Select Screening in vitro kinase assay; type: biochemical
T5 sequence (P52333 whole entry): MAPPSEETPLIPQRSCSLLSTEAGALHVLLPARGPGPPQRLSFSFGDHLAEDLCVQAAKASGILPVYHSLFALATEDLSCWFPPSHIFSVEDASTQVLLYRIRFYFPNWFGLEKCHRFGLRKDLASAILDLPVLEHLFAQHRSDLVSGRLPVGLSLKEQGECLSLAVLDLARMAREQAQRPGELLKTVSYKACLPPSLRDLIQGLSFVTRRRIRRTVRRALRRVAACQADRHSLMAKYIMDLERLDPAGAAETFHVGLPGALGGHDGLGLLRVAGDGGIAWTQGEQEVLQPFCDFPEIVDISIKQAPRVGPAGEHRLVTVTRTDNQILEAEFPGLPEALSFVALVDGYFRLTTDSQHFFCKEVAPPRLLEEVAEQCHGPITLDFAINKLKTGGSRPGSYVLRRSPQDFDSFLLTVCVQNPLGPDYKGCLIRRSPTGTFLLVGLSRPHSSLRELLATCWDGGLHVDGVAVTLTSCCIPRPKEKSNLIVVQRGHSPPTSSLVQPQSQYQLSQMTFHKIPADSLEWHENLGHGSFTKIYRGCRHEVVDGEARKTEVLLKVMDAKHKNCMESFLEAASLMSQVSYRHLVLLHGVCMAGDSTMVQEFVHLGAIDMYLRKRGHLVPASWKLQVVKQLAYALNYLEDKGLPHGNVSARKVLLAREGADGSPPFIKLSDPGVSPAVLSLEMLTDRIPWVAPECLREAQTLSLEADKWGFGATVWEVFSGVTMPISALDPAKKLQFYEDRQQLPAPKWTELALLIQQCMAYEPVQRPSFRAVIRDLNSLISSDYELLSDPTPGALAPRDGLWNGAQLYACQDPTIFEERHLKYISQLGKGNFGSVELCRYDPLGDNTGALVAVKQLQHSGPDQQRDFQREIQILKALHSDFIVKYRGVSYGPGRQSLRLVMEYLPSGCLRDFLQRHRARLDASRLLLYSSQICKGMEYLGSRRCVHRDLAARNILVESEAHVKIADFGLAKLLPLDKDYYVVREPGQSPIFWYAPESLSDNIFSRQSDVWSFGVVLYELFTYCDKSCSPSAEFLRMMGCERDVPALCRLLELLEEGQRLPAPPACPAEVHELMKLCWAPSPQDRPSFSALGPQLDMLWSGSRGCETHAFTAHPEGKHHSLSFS

CLK2 [10] = target: T6, CLK2 (Homo sapiens (Human), UniProt P49760); assay: Invitrogen Select Screening in vitro kinase assay; type: biochemical; conditions: second value of CLK1/2 cell
T6 sequence (P49760 whole entry): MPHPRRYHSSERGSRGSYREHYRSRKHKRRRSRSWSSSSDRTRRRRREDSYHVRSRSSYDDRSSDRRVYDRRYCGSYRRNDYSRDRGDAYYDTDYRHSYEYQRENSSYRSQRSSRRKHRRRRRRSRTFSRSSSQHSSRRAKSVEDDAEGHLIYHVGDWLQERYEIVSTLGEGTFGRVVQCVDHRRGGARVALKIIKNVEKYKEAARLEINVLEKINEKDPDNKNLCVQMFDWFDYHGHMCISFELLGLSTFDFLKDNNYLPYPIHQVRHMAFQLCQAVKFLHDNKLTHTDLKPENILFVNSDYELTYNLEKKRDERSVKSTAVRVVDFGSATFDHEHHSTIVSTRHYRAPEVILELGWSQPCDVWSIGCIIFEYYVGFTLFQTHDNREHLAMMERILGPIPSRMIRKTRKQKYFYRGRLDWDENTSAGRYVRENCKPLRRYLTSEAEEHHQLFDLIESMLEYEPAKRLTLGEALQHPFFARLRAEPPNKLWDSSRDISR

EGFR(T790M) [11] = target: T7, EGFR(T790M) (Homo sapiens (Human), UniProt P00533, T790M); assay: Invitrogen Select Screening in vitro kinase assay; type: biochemical
Ramos cells = assay: Cell proliferation analysis for WM and lymphoma cell lines (CellTiter-Glo); type: cell-based; conditions: Homo sapiens, 72 hours
Procedure: as §2

DYRK1B = DYRK1B (Homo sapiens (Human), UniProt Q9Y463); assay: Kinase panel at 1 uM (Table 9); type: binding; conditions: read-out: % inhibition at 1 uM, DYRK1B
From the text: as §3

JNK1 = JNK1 (Homo sapiens (Human), UniProt P45983); assay: Kinase panel at 1 uM (Table 9); type: binding; conditions: read-out: % inhibition at 1 uM, JNK1
From the text: as §3

mTOR [12] = target: T4, mTOR; assay: DiscoverX binding assay; conditions: DiscoverX binding
From the text: as §3

EGFR(T790M) [13] = target: T7, EGFR(T790M); assay: DiscoverX binding assay
From the text: as §3

CLK2 [14] = target: T6, CLK2; assay: DiscoverX binding assay
From the text: as §3

BTK [15] = target: T8, BTK (Homo sapiens (Human), UniProt Q06187); assay: Invitrogen Select Screening in vitro kinase assay; type: biochemical
T8 sequence (Q06187 whole entry): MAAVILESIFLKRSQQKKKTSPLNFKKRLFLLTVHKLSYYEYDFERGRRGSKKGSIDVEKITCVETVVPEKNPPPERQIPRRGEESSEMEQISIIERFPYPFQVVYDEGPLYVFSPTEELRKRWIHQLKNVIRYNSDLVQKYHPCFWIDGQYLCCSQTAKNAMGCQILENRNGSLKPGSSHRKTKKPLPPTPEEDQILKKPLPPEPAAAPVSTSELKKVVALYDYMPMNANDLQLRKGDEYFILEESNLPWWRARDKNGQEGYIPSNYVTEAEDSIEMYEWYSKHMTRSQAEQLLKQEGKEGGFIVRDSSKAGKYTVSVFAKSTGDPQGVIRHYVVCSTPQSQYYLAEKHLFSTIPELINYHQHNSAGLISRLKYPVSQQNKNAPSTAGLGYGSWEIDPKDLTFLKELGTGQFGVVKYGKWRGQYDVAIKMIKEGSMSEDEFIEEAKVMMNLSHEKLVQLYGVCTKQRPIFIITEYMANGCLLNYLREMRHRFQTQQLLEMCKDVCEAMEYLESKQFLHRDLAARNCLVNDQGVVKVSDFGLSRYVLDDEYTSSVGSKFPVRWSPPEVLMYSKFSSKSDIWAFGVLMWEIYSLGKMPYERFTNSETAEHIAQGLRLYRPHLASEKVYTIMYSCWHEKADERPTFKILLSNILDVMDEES

JAK3 [16] = target: T5, JAK3; assay: DiscoverX binding assay
From the text: as §3

BTK [17] = target: T8, BTK; assay: DiscoverX binding assay
From the text: as §3

MEK5 = MEK5 (Homo sapiens (Human), UniProt Q13163); assay: Kinase panel at 1 uM (Table 9); type: binding; conditions: read-out: % inhibition at 1 uM, MEK5
From the text: as §3

ITK = ITK (Homo sapiens (Human), UniProt Q08881); assay: DiscoverX binding assay
From the text: as §3

CSNK2A2 = CSNK2A2 (Homo sapiens (Human), UniProt P19784); assay: Kinase panel at 1 uM (Table 9); type: binding; conditions: read-out: % inhibition at 1 uM, CSNK2A2
From the text: as §3

IRAK3 = IRAK3 (Homo sapiens (Human), UniProt Q9Y616); assay: Kinase panel at 1 uM (Table 9); type: binding; conditions: read-out: % inhibition at 1 uM, IRAK3
From the text: as §3

[18] = system: Bmx- MEF cells stably overexpressing BmxWT; assay: Wound healing assay; type: cell-based, mouse; conditions: preincubated 4 h; leading edges at 0 and 9 h
Procedure: FIGS. 3A-B show the immunoblotting results where BMX (SiBMX) or control siRNA (SiCtrl) transfected LNCaP cells (FIG. 3A) or VCS2 cells (FIG. 3B) were serum starved for 72 h, serum was stimulated for the indicated times, and the whole cell lysates were immunoblotted. […] FIG. 3G is a bar graph showing the migrated distances where scratch wounds were introduced into confluent heterozygous for Bmx (Bmx^+/−), Bmx^+, or Bmx^− MEFs, and the leading edges were photographed at 0 and 9 h. The migrated distance was measured and normalized to #1 Bmx-group. Error bars depict standard error (SE) for three experiments (***: p<0.001). FIG. 3H is a bar graph showing the migrated distances where scratch wounds were introduced into confluent Bmx^− MEFs stably overexpressing BmxWT, BmxKD, or empty vector (EV), and the leading edges were photographed at 0 and 9 h. The migrated distance was measured and normalized to EV group. Error bar depict standard error (SE) for three independent experiments (*: p<0.05). FIG. 3I is a bar graph showing the migrated distances where Bmx^− MEF cells stably overexpressing BmxWT were preincubated with FAK inhibitor (PF562271) for 4 h. Scratch wounds were introduced into the cells, and the leading edges were photographed at 0 and 9 h. The migrated distance was measured and normalized to control group (Ctrl). […]

EC50 (OCI-Ly19 cells): 30 nM
EC50 (BCWM.1 cells): 120 nM
EC50 (MWCL-1 cells): 190 nM
EC50 (OCI-Ly3 cells): 190 nM
Compound: C=CC(=O)N1CCc2ccc(-n3c(=O)ccc4cnc5ccc(-c6cnn(C)c6)cc5c43)cc21 [II-4]
killing of ex vivo CD19+ B-cells [1]: effectively killed ex vivo cells

Compound: NC1(c2ccc(-c3nc4ccn5c(=O)[nH]nc5c4cc3-c3ccccc3)cc2)CCC1 [MK2206]
MK2206 concentration that potentiates the antiproliferative activity of I-14 (RV-1 cells): ≤ 25 nM

Percent Control, CLK1/2 (CLK1) (CLK1 [2]; DiscoverX binding, first value of cell): 0.4%
inhibition at 1 µM (CLK1 [2]; read-out: % inhibition at 1 uM, CLK1): 0.4%
inhibition at 1 µM (DYRK1A): 0.1%
Percent Control, TEC (TEC): 6%
inhibition at 1 µM (TAK1): 0.35%
inhibition at 1 µM (MKNK2): 0.15%
inhibition at 1 µM (DYRK2): 0.6%
IC50 (CLK1 [3]): 384 nM
inhibition at 1 µM (YSK4): 1.2%
inhibition at 1 µM (PIK4CB): 2.3%
inhibition at 1 µM (PIK3CA(I800L)): 0.45%
EC50 (OCI-Ly19 cells): 40 nM
inhibition at 1 µM (PIK3CG): 4.2%
Percent Control, BMX (BMX [4]): 4.6%
IC50 (BMX [5]): 7.36 nM and 7 nM
IC50 (BLK [6]): 30.2 nM and 30 nM
IC50 (mTOR [7]): 21.9 nM and 22 nM
inhibition at 1 µM (JNK3): 1.8%
% inhibition at 1 uM, FLT3(ITD) (FLT3(ITD)): 2.4%
Percent Control, BLK (BLK [8]; DiscoverX binding): 2.4%
inhibition at 1 µM (BLK [8]; read-out: % inhibition at 1 uM, BLK): 2.4%
inhibition at 1 µM (PIP5K2C): 2.7%
EC50 (BCWM.1 cells): 50 nM
IC50 (JAK3 [9]): 38.1 nM and 38 nM
EC50 (MWCL-1 cells): 180 nM
IC50 (CLK2 [10]): 50 nM
IC50 (EGFR(T790M) [11]): 98.8 nM
EC50 (Ramos cells): 40 nM
inhibition at 1 µM (DYRK1B): 1.8%
inhibition at 1 µM (JNK1): 1.9%
Percent Control, mTOR (mTOR [12]): 0%
EC50 (OCI-Ly3 cells): 80 nM
Percent Control, EGFR(T790M) (EGFR(T790M) [13]; DiscoverX binding): 1.8%
inhibition at 1 µM (EGFR(T790M) [13]; read-out: % inhibition at 1 uM, EGFR(T790M)): 1.4%
Percent Control, CLK1/2 (CLK2) (CLK2 [14]; DiscoverX binding, second value of cell): 1.0%
inhibition at 1 µM (CLK2 [14]; read-out: % inhibition at 1 uM, CLK2): 1.6%
IC50 (BTK [15]): 5.34 nM and 5 nM
Percent Control, JAK3 (JAK3 [16]; DiscoverX binding): 0%
inhibition at 1 µM (JAK3 [16]; read-out: % inhibition at 1 uM, JAK3(JH1domain-catalytic)): 0%
Percent Control, BTK (BTK [17]; DiscoverX binding): 0.2%
percent of control (remaining binding) at 1 µM (BTK [17]; read-out: % inhibition at 1 uM, BTK): 0.2%
inhibition at 1 µM (MEK5): 0.3%
Percent Control, ITK (ITK): 29%
inhibition at 1 µM (CSNK2A2): 1.2%
inhibition at 1 µM (IRAK3): 0.7%
Compound: C=CC(=O)Nc1cc(-n2c(=O)ccc3cnc4ccc(-c5cn[nH]c5)cc4c32)ccc1C [II-6]

Compound: CN(c1ncccc1CNc1nc(Nc2ccc3c(c2)CC(=O)N3)ncc1C(F)(F)F)S(C)(=O)=O [PF562271]
stimulatory effect of BmxWT on wound healing migration [18]: blocked
